{"source": "patent EP3981391B1", "about": "“ORAL PREPARATION HAVING IMPROVED DISSOLUTION RATE AND DISINTEGRATION PROPERTIES FOR NATURAL SUBSTANCE EXTRACT” (Green Cross WellBeing Corporation, priority 2019, dated 2020)", "assay": "Solubility of processed ginseng extract (ginsenosides Rg3 and Rh2 by HPLC) in solvents and dissolution media", "format": "physicochemical", "method": "Processed ginseng extracts were used as natural product extracts of the present invention, and the processed ginseng extracts were prepared by the methods disclosed in Korean Patent Nos. 1595426 and 1966117. Among these, a processed ginseng extract containing 13 wt% of ginsenoside Rg3 and 7 wt% of ginsenoside Rh2 was used.\nTo investigate the solubility of the processed ginseng extract of the present invention, isopropanol, ethanol, water, and a pH 1.2 buffer, a pH 4.0 buffer, and a pH 6.8 buffer, which are dissolution media disclosed in the Korean Pharmacopoeia, were used as solvents. After 500 mg of the processed ginseng extract was added to 2 g of each solvent, stirring was performed at 50 rpm and 37°C for 18 hours, thereby obtaining each sample. Thereafter, a filtrate obtained by filtration of each sample through a 0.45-µm polyvinylidene fluoride (PVDF) syringe filter was analyzed by high performance liquid chromatography (HPLC) to investigate the solubility of ginsenosides Rg3 and Rh2 contained in the processed ginseng extract. The results are shown in Table 1 below. • HPLC Conditions were as follows: • Column: C18, 1.8 µm, 2.1x50 mm • Column Temperature: 50°C • Detector: UV 203 nm • Flow rate: 0.6 ml/min • Amount of injection: 2 µl • Run time: About 14 min • Mobile phase: distilled water: acetonitrile =57:43 (v/v) TABLE 1", "key": {"[1]": {"conditions": "Ethanol, 500 mg processed ginseng extract in 2 g solvent, 50 rpm, 37°C, 18 hours"}, "[2]": {"conditions": "Isopropanol, 500 mg processed ginseng extract in 2 g solvent, 50 rpm, 37°C, 18 hours"}, "[3]": {"conditions": "Water, 500 mg processed ginseng extract in 2 g solvent, 50 rpm, 37°C, 18 hours"}, "[4]": {"conditions": "pH 1.2 buffer, 500 mg processed ginseng extract in 2 g solvent, 50 rpm, 37°C, 18 hours"}, "[5]": {"conditions": "pH 4.0 buffer, 500 mg processed ginseng extract in 2 g solvent, 50 rpm, 37°C, 18 hours"}, "[6]": {"conditions": "pH 6.8 buffer, 500 mg processed ginseng extract in 2 g solvent, 50 rpm, 37°C, 18 hours"}, "[7]": {"conditions": "in water, a pH 1.2 buffer, or a pH 4.0 buffer"}}, "data": [{"smiles": "CC(C)=CCC[C@](C)(O)[C@H]1CC[C@]2(C)[C@@H]1[C@H](O)C[C@@H]1[C@@]3(C)CC[C@H](O[C@@H]4O[C@H](CO)[C@@H](O)[C@H](O)[C@H]4O[C@@H]4O[C@H](CO)[C@@H](O)[C@H](O)[C@H]4O)C(C)(C)[C@@H]3CC[C@]12C", "note": "[Ginsenoside Rg3 R-form, Ginsenoside Rg3]", "values": [{"measurement": "solubility", "setting": "[1]", "result": 5.45, "unit": "mg/g"}, {"measurement": "solubility", "setting": "[2]", "result": 4.72, "unit": "mg/g"}, {"measurement": "solubility", "setting": "[3]", "result": 0.05, "unit": "mg/g"}, {"measurement": "solubility", "setting": "[4]", "result": 0.01, "unit": "mg/g"}, {"measurement": "solubility", "setting": "[5]", "result": 0.05, "unit": "mg/g"}, {"measurement": "solubility", "setting": "[6]", "result": 0.31, "unit": "mg/g"}]}, {"smiles": "CC(C)=CCC[C@](C)(O)[C@H]1CC[C@]2(C)[C@@H]1[C@H](O)C[C@@H]1[C@@]3(C)CC[C@H](O[C@@H]4O[C@H](CO)[C@@H](O)[C@H](O)[C@H]4O[C@@H]4O[C@H](CO)[C@@H](O)[C@H](O)[C@H]4O)C(C)(C)[C@@H]3CC[C@]12C", "note": "[Ginsenoside Rg3 S-form, Ginsenoside Rg3]", "values": [{"measurement": "solubility", "setting": "[1]", "result": 7.52, "unit": "mg/g"}, {"measurement": "solubility", "setting": "[2]", "result": 7.43, "unit": "mg/g"}, {"measurement": "solubility", "setting": "[3]", "result": 0.21, "unit": "mg/g"}, {"measurement": "solubility", "setting": "[4]", "result": 0.01, "unit": "mg/g"}, {"measurement": "solubility", "setting": "[5]", "result": 0.28, "unit": "mg/g"}, {"measurement": "solubility", "setting": "[6]", "result": 1.23, "unit": "mg/g"}]}, {"smiles": "CC(C)=CCC[C@](C)(O)[C@H]1CC[C@]2(C)[C@@H]1[C@H](O)C[C@@H]1[C@@]3(C)CC[C@H](O[C@@H]4O[C@H](CO)[C@@H](O)[C@H](O)[C@H]4O)C(C)(C)[C@@H]3CC[C@]12C", "note": "[Ginsenoside Rh2 R-form, Ginsenoside Rh2]", "values": [{"measurement": "solubility", "setting": "[1]", "result": 2.55, "unit": "mg/g"}, {"measurement": "solubility", "setting": "[2]", "result": 2.47, "unit": "mg/g"}, {"measurement": "solubility", "setting": "[3]", "result": 0.00, "unit": "mg/g"}, {"measurement": "solubility", "setting": "[4]", "result": 0.00, "unit": "mg/g"}, {"measurement": "solubility", "setting": "[5]", "result": 0.00, "unit": "mg/g"}, {"measurement": "solubility", "setting": "[6]", "result": 0.09, "unit": "mg/g"}]}, {"smiles": "CC(C)=CCC[C@](C)(O)[C@H]1CC[C@]2(C)[C@@H]1[C@H](O)C[C@@H]1[C@@]3(C)CC[C@H](O[C@@H]4O[C@H](CO)[C@@H](O)[C@H](O)[C@H]4O)C(C)(C)[C@@H]3CC[C@]12C", "note": "[Ginsenoside Rh2 S-form, Ginsenoside Rh2]", "values": [{"measurement": "solubility", "setting": "[1]", "result": 3.96, "unit": "mg/g"}, {"measurement": "solubility", "setting": "[2]", "result": 3.99, "unit": "mg/g"}, {"measurement": "solubility", "setting": "[3]", "result": 0.10, "unit": "mg/g"}, {"measurement": "solubility", "setting": "[4]", "result": 0.00, "unit": "mg/g"}, {"measurement": "solubility", "setting": "[5]", "result": 0.13, "unit": "mg/g"}, {"measurement": "solubility", "setting": "[6]", "result": 0.60, "unit": "mg/g"}]}, {"smiles": "CC(C)=CCC[C@](C)(O)[C@H]1CC[C@]2(C)[C@@H]1[C@H](O)C[C@@H]1[C@@]3(C)CC[C@H](O[C@@H]4O[C@H](CO)[C@@H](O)[C@H](O)[C@H]4O[C@@H]4O[C@H](CO)[C@@H](O)[C@H](O)[C@H]4O)C(C)(C)[C@@H]3CC[C@]12C", "note": "[ginsenoside Rg3]", "values": [{"measurement": "solubility", "setting": "[7]", "result": "less than 0.3 mg/g"}]}, {"smiles": "CC(C)=CCC[C@](C)(O)[C@H]1CC[C@]2(C)[C@@H]1[C@H](O)C[C@@H]1[C@@]3(C)CC[C@H](O[C@@H]4O[C@H](CO)[C@@H](O)[C@H](O)[C@H]4O)C(C)(C)[C@@H]3CC[C@]12C", "note": "[ginsenoside Rh2]", "values": [{"measurement": "solubility", "setting": "[7]", "result": "less than 0.3 mg/g"}]}]}
